PMC9974930 (Journal of medicinal chemistry, 2023)

Target: T1, recombinant human sEH (HsEH) (Homo sapiens, UniProt P34913)
T1 sequence (P34913 1-555): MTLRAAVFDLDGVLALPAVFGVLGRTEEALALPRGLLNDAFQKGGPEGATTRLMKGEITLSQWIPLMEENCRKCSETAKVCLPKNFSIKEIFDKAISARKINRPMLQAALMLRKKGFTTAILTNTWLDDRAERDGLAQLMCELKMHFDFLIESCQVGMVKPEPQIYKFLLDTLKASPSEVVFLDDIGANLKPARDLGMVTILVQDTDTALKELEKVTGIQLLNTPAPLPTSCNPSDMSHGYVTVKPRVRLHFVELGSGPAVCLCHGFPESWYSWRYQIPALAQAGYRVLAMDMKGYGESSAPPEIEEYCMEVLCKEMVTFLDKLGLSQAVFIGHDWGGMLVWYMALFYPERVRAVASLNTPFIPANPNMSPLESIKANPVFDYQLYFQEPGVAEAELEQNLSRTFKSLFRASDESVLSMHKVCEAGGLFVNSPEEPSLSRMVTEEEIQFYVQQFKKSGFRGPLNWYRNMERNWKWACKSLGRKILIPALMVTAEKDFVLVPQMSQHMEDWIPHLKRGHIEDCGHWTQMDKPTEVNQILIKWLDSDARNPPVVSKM
Assay: biochemical
Details: LLE = pIC50-cLogP

Structure (SMILES) | LLE (ligand lipophilicity efficiency)
C[C@]12C[C@@H]3C[C@](C)(C1)C[C@@](NC(=O)Nc1ccc(CN4CCCC(C(=O)N(CCO)CCO)C4)cc1F)(C3)C2 (stereo partly drawn) [D5, 1-(4-(3-((1r,3R,5S,7r)-3,5-Dimethyladamantan-1-yl)ureido)-3-fluorobenzyl)-N,N-bis(2-hydroxyethyl)piperidine-3-carboxamide] | 6.879
C[C@]12C[C@@H]3C[C@](C)(C1)C[C@@](NC(=O)Nc1ccc(CN4CCCC(C(=O)NCCO)C4)cc1F)(C3)C2 (stereo partly drawn) [D6, 1-(4-(3-((1r,3R,5S,7r)-3,5-Dimethyladamantan-1-yl)ureido)-3-fluorobenzyl)-N-(2-hydroxyethyl)piperidine-3-carboxamide] | 6.145
C[C@]12C[C@@H]3C[C@](C)(C1)C[C@@](NC(=O)Nc1ccc(CN4CCCC(C(=O)NC(CO)CO)C4)cc1F)(C3)C2 (stereo partly drawn) [D7, N-(1,3-Dihydroxypropan-2-yl)-1-(4-(3-((1r,3R,5S,7r)-3,5-dimethyladamantan-1-yl)ureido)-3-fluorobenzyl)piperidine-3-carboxamide] | 7.008
C[C@]12C[C@@H]3C[C@](C)(C1)C[C@@](NC(=O)Nc1ccc(CN4CCCC(C(=O)NC(CO)(CO)CO)C4)cc1F)(C3)C2 (stereo partly drawn) [D8, N-(1,3-Dihydroxy-2-(hydroxymethyl)propan-2-yl)-1-(4-(3-((1r,3R,5S,7r)-3,5-dimethyladamantan-1-yl)ureido)-3-fluorobenzyl)piperidine-3-carboxamide] | 7.992
C[C@]12C[C@@H]3C[C@](C)(C1)C[C@@](NC(=O)Nc1ccc(CN4CCCC(C(=O)N5CCN(CCO)CC5)C4)cc1F)(C3)C2 (stereo partly drawn) [D9, 1-((1r,3R,5S,7r)-3,5-Dimethyladamantan-1-yl)-3-(2-fluoro-4-((3-(4-(2-hydroxyethyl)piperazine-1-carbonyl)piperidin-1-yl)methyl)phenyl)urea] | 5.790
C[C@]12C[C@@H]3C[C@](C)(C1)C[C@@](NC(=O)Nc1ccc(CN4CCCC(C(=O)O)C4)cc1F)(C3)C2 (stereo partly drawn) [D, 1-(4-(3-((1r,3R,5S,7r)-3,5-Dimethyladamantan-1-yl)ureido)-3-fluorobenzyl) piperidine-3-carboxylic acid] | 7.656
C[C@]12C[C@@H]3C[C@](C)(C1)C[C@@](NC(=O)Nc1ccc(CN4CCC(C(N)=O)CC4)cc1F)(C3)C2 [E1, 1-(4-(3-((1r,7r)-3,5-Dimethyladamantan-1-yl)ureido)-3-fluorobenzyl)piperidine-4-carboxamide] | 5.557
CC(O)CNC(=O)C1CCN(Cc2ccc(NC(=O)N[C@@]34C[C@@H]5C[C@@](C)(C[C@@](C)(C5)C3)C4)c(F)c2)CC1 (stereo partly shown) [E2, 1-(4-(3-((1r,7r)-3,5-Dimethyladamantan-1-yl)ureido)-3-fluorobenzyl)-N-(2-hydroxypropyl)piperidine-4-carboxamide] | 3.267
C[C@]12C[C@@H]3C[C@](C)(C1)C[C@@](NC(=O)Nc1ccc(CN4CCC(C(=O)NC(CO)CO)CC4)cc1F)(C3)C2 [E3, N-(1,3-Dihydroxypropan-2-yl)-1-(4-(3-((1r,7r)-3,5-dimethyladamantan-1-yl)ureido)-3-fluorobenzyl)piperidine-4-carboxamide] | 5.090
C[C@]12C[C@@H]3C[C@](C)(C1)C[C@@](NC(=O)Nc1ccc(CN4CCC(C(=O)NC(CO)(CO)CO)CC4)cc1F)(C3)C2 [E4, N-(1,3-Dihydroxy-2-(hydroxymethyl)propan-2-yl)-1-(4-(3-((1r,7r)-3,5-dimethyladamantan-1-yl)ureido)-3-fluorobenzyl)piperidine-4-carboxamide] | 6.459
C[C@]12C[C@@H]3C[C@](C)(C1)C[C@@](NC(=O)Nc1ccc(CN4CCC(C(=O)N(CCO)CCO)CC4)cc1F)(C3)C2 [E5, 1-(4-(3-((1r,7r)-3,5-Dimethyladamantan-1-yl)ureido)-3-fluorobenzyl)-N,N-bis(2-hydroxyethyl)piperidine-4-carboxamide] | 5.585
CC(=O)N1CCCN(C(=O)C2CCCN(C(=O)c3ccc(NC(=O)N[C@@]45C[C@@H]6C[C@@](C)(C[C@@](C)(C6)C4)C5)c(F)c3)C2)CC1 (stereo partly drawn) [F1, 1-(4-(3-(4-Acetyl-1,4-diazepane-1-carbonyl)piperidine-1-carbonyl)-2-fluorophenyl)-3-((1r,3R,5S,7r)-3,5-dimethyladamantan-1-yl)urea] | 6.801
CCC(=O)N1CCCN(C(=O)C2CCCN(C(=O)c3ccc(NC(=O)N[C@@]45C[C@@H]6C[C@@](C)(C[C@@](C)(C6)C4)C5)c(F)c3)C2)CC1 (stereo partly drawn) [F2, 1-((1r,3R,5S,7r)-3,5-Dimethyladamantan-1-yl)-3-(2-fluoro-4-(3-(4-propionyl-1,4-diazepane-1-carbonyl)piperidine-1-carbonyl)phenyl)urea] | 6.164
CCC(C)C(=O)N1CCCN(C(=O)C2CCCN(C(=O)c3ccc(NC(=O)N[C@@]45C[C@@H]6C[C@@](C)(C[C@@](C)(C6)C4)C5)c(F)c3)C2)CC1 (stereo partly drawn) [F3, 1-((1r,3R,5S,7r)-3,5-Dimethyladamantan-1-yl)-3-(2-fluoro-4-(3-(4-(2-methylbutanoyl) −1,4-diazepane-1-carbonyl)piperidine-1-carbonyl)phenyl)urea] | 4.847
CCC(C)C(=O)N1CCCN(C(=O)C2CCCN(Cc3ccc(NC(=O)N[C@@]45C[C@@H]6C[C@@](C)(C[C@@](C)(C6)C4)C5)c(F)c3)C2)CC1 (stereo partly drawn) [G2, 1-((1r,3R,5S,7r)-3,5-Dimethyladamantan-1-yl)-3-(2-fluoro-4-((3-(4-(2-methylbutanoyl) −1,4-diazepane-1-carbonyl)piperidin-1-yl)methyl)phenyl)urea] | 4.986
C=CC(=O)N1CCCN(C(=O)C2CCCN(Cc3ccc(NC(=O)N[C@@]45C[C@@H]6C[C@@](C)(C[C@@](C)(C6)C4)C5)c(F)c3)C2)CC1 (stereo partly drawn) [G3, 1-(4-((3-(4-acryloyl-1,4-Diazepane-1-carbonyl)piperidin-1-yl)methyl)-2-fluorophenyl) −3-((1r,3R,5S,7r)-3,5-dimethyladamantan-1-yl)urea] | 5.598
C=C(C)C(=O)N1CCCN(C(=O)C2CCCN(Cc3ccc(NC(=O)N[C@@]45C[C@@H]6C[C@@](C)(C[C@@](C)(C6)C4)C5)c(F)c3)C2)CC1 (stereo partly drawn) [G4, 1-((1r,3R,5S,7r)-3,5-Dimethyladamantan-1-yl)-3-(2-fluoro-4-((3-(4-methacryloyl-1,4-diazepane-1-carbonyl)piperidin-1-yl)methyl)phenyl)urea] | 4.821
CCC(=O)N1CCC(CC(=O)N2CCCN(C(=O)c3ccc(NC(=O)N[C@@]45C[C@@H]6C[C@@](C)(C[C@@](C)(C6)C4)C5)c(F)c3)CC2)CC1 [H1, 1-((1r,3R,5S,7r)-3,5-Dimethyladamantan-1-yl)-3-(2-fluoro-4-(4-(2-(1-propionylpiperidin-4-yl)acetyl)-1,4-diazepane-1-carbonyl)phenyl)urea] | 5.848
C=C(C)C(=O)N1CCC(CC(=O)N2CCCN(C(=O)c3ccc(NC(=O)N[C@@]45C[C@@H]6C[C@@](C)(C[C@@](C)(C6)C4)C5)cc3)CC2)CC1 [H3, 1-((1r,3R,5S,7r)-3,5-Dimethyladamantan-1-yl)-3-(4-(4-(2-(1-methacryloylpiperidin-4-yl)acetyl)-1,4-diazepane-1-carbonyl)phenyl)urea] | 5.530
